Here are results for 25 molecules from patent US7902373B2 (Pfizer Inc, priority 2006, dated 2011).

Where a name gives a salt, the structure may show the parent alone.

T1 sequence (O60760 whole entry): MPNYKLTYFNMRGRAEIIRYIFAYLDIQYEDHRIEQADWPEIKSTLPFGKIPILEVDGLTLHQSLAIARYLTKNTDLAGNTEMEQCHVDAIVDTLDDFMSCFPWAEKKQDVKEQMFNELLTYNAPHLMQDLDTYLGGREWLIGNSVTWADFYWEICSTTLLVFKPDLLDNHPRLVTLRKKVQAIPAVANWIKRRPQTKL

One experiment concerns the target T1, human recombinant H-PGDS (Homo sapiens, UniProt O60760). Nature of the experiment: Slightly modified h-PGDS TBA enzyme assay (Examples 623 onwards). Type of experiment: biochemical.
Details: not given
The protocol:
Prostaglandin D Synthase (PGDS) converts the substrate prostaglandin H2 (PGH2) to prostaglandin D2.
Examples 623 onwards were tested in a slightly modified assay: The enzyme assay (30 μls during biological process) contained 100 mM Trizma pH 8.0, 100 μM MgCl2, 0.1 mg/ml IgG Rabbit serum, 5.0 μM PGH2 (Cayman; ethanol solution, #17020), 2.5 mM L-Glutathione (Sigma; reduced form #G4251), 1:40,000 human recombinant H-PGDS (from 1 mg/ml), 0.5% DMSO and inhibitor (varying concentration). 3 μls of diluted inhibitor (dissolved in DMSO) was plated into a 384-well assay plate followed by a 24 μl addition of an enzyme solution containing h-PGDS, Trizma, MgCl2, IgG and L-Glutathione. After pre-incubation of inhibitor and enzyme solution for 10 minutes at room temperature, the reaction was initiated with a 3 μl addition of substrate solution in 10 mM HCl. The reaction was terminated after 40 second by the addition of 3 μl stop buffer containing FeCl2 and citric acid. After addition of 45 μl of TBA plates were heated for one hour in a 70° C. oven. Plates were cooled at room temperature overnight and read on a plate reader the next day with excitation @ 530 nm and emission @ 560 nm. IC50's of inhibitors were calculated with a 4-parameter fit using 11 inhibitor concentrations in duplicate with 1/2 log serial dilutions. […] The highest inhibitor concentration tested was typically 10 μM.
As usually defined, the IC50 is the concentration that inhibits the measured activity by half. Turning to `N#Cc1cccc(-c2ccc(C(=O)NC3CCN(CC(F)(F)F)CC3)cn2)c1` [Example 623, 6-(3-Cyanophenyl)-N-[1-(2,2,2-trifluoroethyl)piperidin-4-yl]nicotinamide], the half-inhibitory concentration (IC50) was 104 nM.
For `N#Cc1ccccc1-c1ccc(C(=O)NC2CCN(CC(F)(F)F)CC2)cn1` [Example 624, 6-(2-Cyanophenyl)-N-[1-(2,2,2-trifluoroethyl)piperidin-4-yl]nicotinamide], the IC50 turned out to be 36 nM.
For the molecule `O=C(NC1CCN(c2ncccn2)CC1)c1ccc(-c2ccccc2O)nc1` [Example 625, 6-(2-Hydroxyphenyl)-N-(1-pyrimidin-2-ylpiperidin-4-yl)nicotinamide], the half-inhibitory concentration (IC50) was 4.06 nM.
Same read-out and setting: the result for `CC(C)(C)C(=O)N1CCC(NC(=O)c2ccc(-c3ccccc3O)nc2)CC1` [Example 627] reads 6.75 nM; that for `CCOC(=O)N1CCC(NC(=O)c2ccc(-c3ccccc3O)nc2)CC1` [Example 628], 6.22 nM; that for `O=C(NC1CCN(CC2CC2)CC1)c1ccc(-c2ccccc2O)nc1` [Example 629], 22.2 nM.
`COCCN1CCC(NC(=O)c2ccc(-c3ccccc3O)nc2)CC1` [Example 630]: the IC50 was determined as 32.8 nM.
For the molecule `CCCN1CCC(NC(=O)c2ccc(-c3ccccc3O)nc2)CC1` [Example 631], the IC50 is 82.4 nM.
On the same count and under the same terms, under `O=C(NC1CCN(c2cccnn2)CC1)c1ccc(-c2ccccc2O)nc1` [Example 632] stands 5.57 nM.
Same read-out and setting: the result for `CC(C)S(=O)(=O)N1CCC(NC(=O)c2ccc(-c3ccccc3O)nc2)CC1` [Example 633] reads 16.6 nM; that for `Cn1nnnc1N1CCC(NC(=O)c2ccc(-c3ccccc3O)nc2)CC1` [Example 634], 6.13 nM; that for `O=C(NC1CCN(CC(F)(F)F)CC1)c1ccc(-c2cc(F)ccc2O)nc1` [Example 635], 10.9 nM.
Regarding `CC(C)(C)C(=O)N1CCC(NC(=O)c2ccc(-c3cc(F)ccc3O)nc2)CC1` [Example 636], the IC50 amounted to 17.2 nM.
Same read-out and setting: under `COCCN1CCC(NC(=O)c2ccc(-c3cc(F)ccc3O)nc2)CC1` [Example 637] stands 62.4 nM; under `CCCN1CCC(NC(=O)c2ccc(-c3cc(F)ccc3O)nc2)CC1` [Example 638], 83.3 nM.
Take `O=C(NC1CCN(c2cccnn2)CC1)c1ccc(-c2cc(F)ccc2O)nc1` [Example 639]: the IC50 worked out at 10000 nM.
On the same count and under the same terms, the result for `CCN1CCC(NC(=O)c2ccc(-c3cc(F)ccc3O)nc2)CC1` [Example 640] reads 129 nM; that for `CC(C)S(=O)(=O)N1CCC(NC(=O)c2ccc(-c3cc(F)ccc3O)nc2)CC1` [Example 642], 13.9 nM.
Same read-out and setting: the result for `Cn1nnnc1N1CCC(NC(=O)c2ccc(-c3cc(F)ccc3O)nc2)CC1` [Example 643] reads 7.77 nM; that for `O=C1CC(NC(=O)c2ccc(-c3cccc(F)c3)nc2)c2ccccc2N1` (stereo not drawn) [Example 650, 6-(3-Fluorophenyl)-N-(2-oxo-1,2,3,4-tetrahydroquinolin-4-yl)nicotinamide], 0.568 nM; that for `O=C(N[C@H]1[C@@H]2CN(CC(F)(F)F)C[C@@H]21)c1ccc(-c2cccc(F)c2)nc1` [Example 651, 6-(3-Fluorophenyl)-N-((1R,5S,6S)-3-(2,2,2-trifluoroethyl)-3-aza-bicyclo[3.1.0]hexan-6-yl)nicotinamide], 2.01 nM.
On the same count and under the same terms, under `O=C(N[C@H]1[C@@H]2CNC[C@@H]21)c1ccc(-c2cccc(F)c2)nc1` [Example 653, N-[(1R,5S,6s)-3-azabicyclo[3.1.0]hex-6-yl]-6-(3-fluorophenyl)nicotinamide di-hydrochloride] stands 177 nM; under `CC(=O)N1C[C@@H]2[C@H](C1)[C@H]2NC(=O)c1ccc(-c2cccc(F)c2)nc1` [Example 654, N-[(1R,5S,6s)-3-acetyl-3-azabicyclo[3.1.0]hex-6-yl]-6-(3-fluorophenyl)nicotinamide], 33.8 nM; under `CCCN1C[C@@H]2[C@H](C1)[C@H]2NC(=O)c1ccc(-c2cccc(F)c2)nc1` [Example 655], 66.8 nM.

The target of the next experiment is T1, human recombinant H-PGDS. The experiment can be described thus: Fluorescence intensity h-PGDS TBA enzyme assay. The conditions noted are these: Examples up to 622 (and 3a, 3b). Type of experiment: biochemical.
`O=C(NC1CCN(CC(F)(F)F)CC1)c1ccc(-c2cccc(F)c2)nc1` [Example 2, 6-(3-Fluorophenyl)-N-(1-(2,2,2-trifluoroethyl)piperidin-4-yl)nicotinamide]: the concentration for half-maximal inhibition (IC50) was 0.852 nM.

Another experiment deals with A. suum antigen-induced asthmatic response in conscious sheep. Nature of the experiment: In vivo assay, anti-asthmatic effects in a sheep model of asthma. The conditions noted are these: i.v. infusion, single dose of 1, 0.3 or 0.1 mg/kg, specific lung resistance (RL). The text has this:
In vivo Assay—Anti-Asthmatic Effects in a Sheep Model of Asthma A validated model of A. suum antigen-induced asthmatic response in conscious sheep was used to evaluate the pharmacokinetic properties, inhibition of antigen-induced early and late airway bronchoconstriction in the lung by compound (Abraham, W. M., et al., Am Rev Respir Dis 1991; 143:787-796). […] An aerosol of A. suum extract, generated using a disposable medical nebulizer (Raindrop®, Puritan Bennett) was delivered in at a tidal volume of 500 mL and a rate of 20 breaths/min. A compound of Example 2 was delivered by i.v. infusion over the interval t=0-20 min prior to antigen challenge. A single dose of 1, 0.3 or 0.1 mg//kg was evaluated. Baseline and post-drug measurements of specific lung resistance (RL) were obtained immediately prior to challenge (t=30 min) with A. suum antigen, immediately after challenge and then hourly from 1 to 6 h post challenge and on the half-hour from 6.5, 5-8 h post challenge. Measurements of RL were obtained 24 h post challenge, followed by the 24 h post-challenge dose-response curve for carbachol. […] To assess airway responsiveness, the cumulative carbachol dose in breath units (BU) that increased RL 400% over the post-buffer value (i.e., PC400) were calculated from the dose-response curve. […]
Turning to `O=C(NC1CCN(CC(F)(F)F)CC1)c1ccc(-c2cccc(F)c2)nc1` [Example 2, 6-(3-Fluorophenyl)-N-(1-(2,2,2-trifluoroethyl)piperidin-4-yl)nicotinamide], the “early airway response (0-2 h after allergen challenge)” value is on record as “not reduced” and the “late airway response (4-8 h after antigen challenge) inhibited” value was “approximately 60%”.
